# In patent publication EP0694535A1, “Non-peptidyl tachykinin receptor antagonists” (ELI LILLY AND COMPANY, priority 1994, dated 1996):
# Structures can show the parent of a compound that is named as a salt.
# Biological target: T1, NK-1 receptor (Homo sapiens, UniProt P25103)
# T1 construct: an aliquot of IM9 cells; endogenous in cells; host or cells: IM9 cells (whole cells)
# Experiment: NK-1 Receptor Binding Assay (competition with labeled substance P on IM9 cells)
# Details: @ 20μM, inhibition of substance P binding to the NK-1 receptor, read-out: Percent Inhibition
# Procedure: Radioreceptor binding assays were performed using a derivative of a previously published protocol. D.G. Payan, et al., Journal of Immunology, 133:3260-3265 (1984). In this assay an aliquot of IM9 cells (1 x 10⁶ cells/tube in […] medium supplemented with 10% fetal calf serum) was incubated with 20 pM […] substance P in the presence of increasing competitor concentrations for 45 minutes at 4°C.
# The IM9 cell line is a well-characterized cell line which is readily available to the public. See. e.g., Annals of the New York Academy of Science, 190: 221-234 (1972); Nature (London), 251:443-444 (1974); Proceedings of the National Academy of Sciences (USA), 71:84-88 (1974). These cells were routinely cultured in RPMI 1640 supplemented with 50 µg/ml gentamicin sulfate and 10% fetal calf serum.
# The reaction was terminated by filtration through a glass fiber filter harvesting system using filters previously soaked for 20 minutes in 0.1% polyethylenimine. Specific binding of labeled substance P was determined in the presence of 20 nM unlabeled ligand.
# Column 1 provides the example number of the test antagonist compound. The next columns detail the substitution patterns of the test compound.
# T1 sequence (P25103 whole entry): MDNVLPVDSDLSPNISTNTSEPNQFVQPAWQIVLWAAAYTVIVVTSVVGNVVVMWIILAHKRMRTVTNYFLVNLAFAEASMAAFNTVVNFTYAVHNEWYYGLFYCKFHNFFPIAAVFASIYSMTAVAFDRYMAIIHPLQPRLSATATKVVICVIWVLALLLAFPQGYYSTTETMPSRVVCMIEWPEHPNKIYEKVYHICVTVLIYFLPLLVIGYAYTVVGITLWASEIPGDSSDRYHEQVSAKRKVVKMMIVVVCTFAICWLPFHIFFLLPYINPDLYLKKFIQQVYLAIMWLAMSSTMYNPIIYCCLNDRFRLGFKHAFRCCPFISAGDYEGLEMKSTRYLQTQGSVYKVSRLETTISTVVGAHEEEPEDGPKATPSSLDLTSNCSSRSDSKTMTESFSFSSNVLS
row,SMILES,inhibition at 20 µM [%]
1,"COc1ccc(-c2nc3ccccc3n2-c2ccccc2)cc1 [Example 2, 1-phenyl-2-(4-methoxyphenyl)benzimidazole]",38
2,"Cc1ccccc1-c1nc2ccccc2n1-c1ccccc1 [Example 23, 1-phenyl-2-(2-methylphenyl)benzimidazole]",51
3,"Oc1ccc(-c2nc3ccccc3n2-c2ccccc2)cc1 [Example 29, 1-phenyl-2-(4-hydroxyphenyl)benzimidazole]",67
4,"c1ccc(-n2c(C3CCCCC3)nc3ccccc32)cc1 [Example 21, 1-phenyl-2-cyclohexylbenzimidazole]",26
5,"FC(F)(F)c1ccccc1-c1nc2ccccc2n1-c1ccccc1 [Example 36, 1-phenyl-2-(2-trifluoromethylphenyl)-benzimidazole]",43
6,"Clc1ccc(-n2c(-c3ccccc3)nc3ccccc32)cc1 [Example 8, 1-(4-chlorophenyl)-2-phenylbenzimidazole]",11
7,"CCCCCc1nc2ccccc2n1-c1ccccc1 [Example 35, 1-phenyl-2-pentylbenzimidazole hydrochloride]",51
8,"c1ccc(-c2nc3ccccc3n2-c2ccccc2)cc1 [Example 1, 1,2-diphenylbenzimidazole]",25
9,"Clc1ccc(-c2nc3ccccc3n2-c2ccccc2)cc1 [Example 5, 1-phenyl-2-(4-chlorophenyl)benzimidazole]",38
10,"c1ccc(-c2nc3ccccc3n2CCN2CCCCC2)cc1 [Example 28, 1-(piperidin-1-ylethyl)-2-phenylbenzimidazole dihydrochloride]",16
11,"Clc1ccccc1-c1nc2ccccc2n1-c1ccccc1 [Example 22, 1-phenyl-2-(2-chlorophenyl)benzimidazole]",65
12,"COc1ccc(-c2nc3ccccc3n2-c2ccc(Cl)cc2)cc1 [Example 17, 1-(4-chlorophenyl)-2-(4-methoxyphenyl)benzimidazole]",17
13,"O=[N+]([O-])c1cc(-c2nc3ccccc3n2-c2ccccc2)ccc1Cl [Example 30, 1-phenyl-2-(3-nitro-4-chlorophenyl)-benzimidazole]",79
14,"FC(F)(F)c1cccc(-c2nc3ccccc3n2-c2ccccc2)c1 [Example 9, 1-phenyl-2-(3-trifluoromethylphenyl)-benzimidazole]",15
15,"Cc1ccc(-c2nc3ccccc3n2-c2ccccc2)cc1 [Example 18, 1-phenyl-2-(4-methylphenyl)benzimidazole]",37
16,"Clc1ccc(-c2nc3ccccc3n2-c2ccc(Cl)cc2)cc1 [Example 11, 1-(4-chlorophenyl)-2-(4-chlorophenyl)-benzimidazole]",19
17,"CN(C)CCn1c(-c2ccccc2)nc2ccccc21 [Example 26, 1-dimethylaminoethyl-2-phenylbenzimidazole dihydrochloride]",0
18,"c1ccc(Cc2nc3ccccc3n2-c2ccccc2)cc1 [Example 3, 1-phenyl-2-phenylmethylbenzimidazole]",30

# Same assay, conditions: at 10μM, inhibition of substance P binding to the NK-1 receptor, read-out: Percent Inhibition
row,SMILES,inhibition at 10 µM [%]
1,"COc1ccc(Cn2c(-c3cccc(C)c3)nc3ccccc32)cc1 [Example 66, 1-(4-Methoxybenzyl)-2-(3-methylphenyl)benzimidazole]",34
2,"Cc1cccc(-c2nc3ccccc3n2Cc2cccc(O)c2)c1 [Example 67, 1-(3-hydroxybenzyl)-2-(3-methylphenyl)benzimidazole hydrobromide]",60
3,"Cc1cccc(-c2nc3ccccc3n2Cc2ccc(Cl)cc2Cl)c1 [Example 63, 1-(2,4-Dichlorobenzyl)-2-(3-methylphenyl)benzimidazole]",36
4,"COc1cccc(Cn2c(-c3cccc(C)c3)nc3ccccc32)c1 [Example 65, 1-(3-Methoxybenzyl)-2-(3-methylphenyl)benzimidazole]",58

# Same assay, conditions: concentration which inhibits fifty percent of the binding of substance P, 20 pM labeled substance P, 45 minutes at 4°C
row,SMILES,IC50 [µM]
1,"c1ccc(-n2c(-c3cccs3)nc3ccccc32)cc1 [Example 33, 1-phenyl-2-(thien-2-yl)benzimidazole]",3.98
2,"COc1cc(-c2nc3ccccc3n2-c2ccccc2)cc(OC)c1OC [Example 16, 1-phenyl-2-(3,4,5-trimethoxyphenyl)-benzimidazole]",0.64
3,"O=[N+]([O-])c1ccc(-c2nc3ccccc3n2-c2ccccc2)cc1 [Example 7, 1-phenyl-2-(4-nitrophenyl)benzimidazole]",9.12
4,"O=[N+]([O-])c1cccc(-c2nc3ccccc3n2-c2ccccc2)c1 [Example 10, 1-phenyl-2-(3-nitrophenyl)benzimidazole]",5
5,COc1cc(-c2nc3ccc(OC(C)CN(C)C)cc3n2Cc2ccccc2)cc(OC)c1OC (centres unmarked) [Example 78],0.151
6,"COc1ccc(-c2nc3ccccc3n2-c2ccccc2)cc1OC [Example 15, 1-phenyl-2-(3,4-dimethoxyphenyl)benzimidazole]",2.98
7,"FC(F)(F)c1ccc(-c2nc3ccccc3n2-c2ccccc2)cc1 [Example 12, 1-phenyl-2(4-trifluoromethylphenyl)-benzimidazole]",6.72
8,"Clc1ccc(-c2nc3ccccc3n2-c2ccccc2)cc1Cl [Example 27, 1-phenyl-2-(3,4-dichlorophenyl)benzimidazole]",6.61
9,"N#Cc1ccc(-c2nc3ccccc3n2-c2ccccc2)cc1 [Example 20, 1-phenyl-2-(4-cyanophenyl)benzimidazole]",3.47
10,"COc1ccc2nc(-c3cc(OC)c(OC)c(OC)c3)n(Cc3ccccc3)c2c1 [Example 39, 1-phenylmethyl-2-(3,4,5-trimethoxyphenyl)-6-methoxybenzimidazole]",0.427
11,"COc1cc(-c2nc3ccc(O)cc3n2Cc2ccccc2)cc(OC)c1OC [Example 69, 1-benzyl-2-(3,4,5-trimethoxyphenyl)-6-(hydroxy)-benzimidazole hydrochloride]",1.13
12,"COc1cc(-c2nc3ccc(OCCCN(C)C)cc3n2Cc2ccccc2)cc(OC)c1OC [Example 80, 1-benzyl-2-(3,4,5-trimethoxyphenyl)-6-[3-(N,N-dimethylamino)propoxy]benzimidazole]",0.123
13,"Clc1cccc(-c2nc3ccccc3n2-c2ccccc2)c1 [Example 4, 1-phenyl-2-(3-chlorophenyl)benzimidazole]",7
14,"c1ccc(-n2c(-c3ccc4ccccc4c3)nc3ccccc32)cc1 [Example 13, 1-phenyl-2-(2-naphthyl)benzimidazole]",6.91
15,"COc1cc(-c2nc3ccc(OCCN(C)C)cc3n2Cc2ccccc2)cc(OC)c1OC [Example 79, 1-benzyl-2-(3,4,5-trimethoxyphenyl)-6-[2-(N,N-dimethylamino)ethoxy]benzimidazole]",0.097
16,"COc1cccc(-c2nc3ccccc3n2-c2ccccc2)c1 [Example 6, 1-phenyl-2-(3-methoxyphenyl)benzimidazole]",3.29
17,"COc1cc(-c2nc3ccc(OCCN4CCN(C)CC4)cc3n2Cc2ccccc2)cc(OC)c1OC [Example 83, 1-benzyl-2-(3,4,5-trimethoxyphenyl)-6-[2-(4-methyl-1-piperazinyl)ethoxy]benzimidazole]",0.098
18,"COc1ccc2c(c1)nc(-c1cc(OC)c(OC)c(OC)c1)n2Cc1ccccc1 [Example 38, 1-phenylmethyl-2-(3,4,5-trimethoxyphenyl)-5-methoxybenzimidazole]",1.05
19,"Oc1cccc(-c2nc3ccccc3n2-c2ccccc2)c1 [Example 34, 1-phenyl-2-(3-hydroxyphenyl)benzimidazole]",12
20,"COc1cc(OC)cc(-c2nc3ccccc3n2-c2ccccc2)c1 [Example 14, 1-phenyl-2-(3,5-dimethoxyphenyl)benzimidazole]",1.54
21,"COc1cc(-c2nc3ccc(OCCN(C(C)C)C(C)C)cc3n2Cc2ccccc2)cc(OC)c1OC [Example 81, 1-benzyl-2-(3,4,5-trimethoxyphenyl)-6-[2-(N,N-diisopropylamino)ethoxy]benzimidazole]",0.04
22,"CCCc1nc2ccccc2n1-c1ccccc1 [Example 32, 1-phenyl-2-propylbenzimidazole]",10
23,"N#Cc1cccc(-c2nc3ccccc3n2-c2ccccc2)c1 [Example 25, 1-phenyl-2-(3-cyanophenyl)benzimidazole]",3.27
24,"Cc1cccc(-c2nc3ccccc3n2-c2ccccc2)c1 [Example 19, 1-phenyl-2-(3-methylphenyl)benzimidazole]",1.1
25,"COc1ccccc1-c1nc2ccccc2n1-c1ccccc1 [Example 24, 1-phenyl-2-(2-methoxyphenyl)benzimidazole]",8.67
